Measured values as given in patent US11986471B2, “Compounds and methods of use” (Tango Therapeutics, Inc., priority 2018, dated 2024).

Experiments:
PRMT5 [1] = molecular target: T1, PRMT5 (Homo sapiens, UniProt O14744); experiment: PRMT5 IC50 assay in the presence of MTA as cofactor; assay type: biochemical; conditions: for IC50: PRMT5, MTA as cofactor
T1 construct: purchased Viva (custom protein)
Method in brief: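 IC50 against PRMT5 determined with SAM as cofactor, with no cofactor, and with MTA as cofactor. Ki derived as IC50/1.5 for the SAM assay and IC50/13.5 for the MTA assay; SAM Ki to MTA Ki ratio also reported.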

PRMT5 [2] = molecular target: T1, PRMT5; experiment: PRMT5 IC50 assay with no cofactor; assay type: biochemical
Method in brief: (§1)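 Ki conversion: SAM arm, Ki=IC50/1.5; MTA arm, Ki=IC50/13.5. No-cofactor arm reported as IC50 only. Selectivity expressed as Ki(SAM)/Ki(MTA).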

HAP1 MTAP-deleted = experiment: SDMA in-cell western assay, HAP1 MTAP-deleted cell line; assay type: cell-based; conditions: for IC50: Homo sapiens, HAP1 MTAP-deleted cell line; for MTAP Intact/Deleted Ratio: IC50 ratio HAP1 MTAP-intact / HAP1 MTAP-deleted
Method in brief: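 MTAP-null HAP1 cells, the deleted member of an isogenic pair with endogenously MTAP-expressing HAP1, are treated with compound. SDMA is then quantified by in-cell western and an IC50 is calculated.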

PRMT5 [3] = molecular target: T1, PRMT5; experiment: PRMT5 IC50 assay in the presence of SAM as cofactor; assay type: biochemical
Method in brief: as §1

HAP1 MTAP-intact = experiment: SDMA in-cell western assay, HAP1 MTAP-intact cell line; assay type: cell-based; conditions: Homo sapiens
Method in brief: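 Cells from two matched HAP1 lines, MTAP-null and MTAP-expressing at endogenous levels, are treated with compound. SDMA is then quantified by in-cell western and an IC50 is calculated for each line.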

[4] = ratio between Ki in the presence of SAM and Ki in the presence of MTA
[5] = ratio between the Ki in the presence of SAM and the Ki in the presence of MTA

T1 sequence (O14744 whole entry): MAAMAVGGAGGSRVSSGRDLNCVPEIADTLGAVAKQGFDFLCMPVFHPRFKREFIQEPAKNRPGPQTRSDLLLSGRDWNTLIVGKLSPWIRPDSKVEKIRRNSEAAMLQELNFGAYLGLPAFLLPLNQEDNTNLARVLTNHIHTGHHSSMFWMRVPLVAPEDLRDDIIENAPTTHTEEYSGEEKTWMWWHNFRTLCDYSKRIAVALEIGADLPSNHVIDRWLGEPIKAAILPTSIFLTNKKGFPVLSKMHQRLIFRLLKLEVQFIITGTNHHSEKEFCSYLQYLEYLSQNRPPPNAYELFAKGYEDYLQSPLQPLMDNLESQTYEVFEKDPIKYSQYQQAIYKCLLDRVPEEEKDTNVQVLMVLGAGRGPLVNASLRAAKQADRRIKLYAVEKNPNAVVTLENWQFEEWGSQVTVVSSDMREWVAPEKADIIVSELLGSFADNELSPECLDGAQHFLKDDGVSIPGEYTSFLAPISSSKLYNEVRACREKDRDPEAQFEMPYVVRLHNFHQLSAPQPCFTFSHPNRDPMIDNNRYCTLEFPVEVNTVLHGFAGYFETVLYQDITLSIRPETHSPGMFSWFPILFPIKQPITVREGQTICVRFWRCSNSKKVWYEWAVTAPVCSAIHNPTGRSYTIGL
T1 sequence (Q9BQA1 whole entry partner): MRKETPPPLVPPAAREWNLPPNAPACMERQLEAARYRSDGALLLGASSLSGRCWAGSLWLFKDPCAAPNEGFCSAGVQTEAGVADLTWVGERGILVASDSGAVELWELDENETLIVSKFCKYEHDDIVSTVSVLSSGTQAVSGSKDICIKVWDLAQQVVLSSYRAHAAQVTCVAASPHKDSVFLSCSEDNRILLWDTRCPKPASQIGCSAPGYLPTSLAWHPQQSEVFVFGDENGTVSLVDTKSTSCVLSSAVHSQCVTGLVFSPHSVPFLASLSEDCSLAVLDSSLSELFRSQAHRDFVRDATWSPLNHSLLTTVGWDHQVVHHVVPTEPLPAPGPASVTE

SMILES | IC50 (PRMT5 [1]) [nM] | SAM/MTA Ratio (PRMT5 [1]; [4]) | IC50 (PRMT5 [2]; read-out: No Co-factor IC50) [nM] | IC50 (HAP1 MTAP-deleted) [nM] | MTAP Intact/Deleted Ratio (HAP1 MTAP-deleted) | IC50 (PRMT5 [3]) [nM] | IC50 (HAP1 MTAP-intact) [nM] | SAM/MTA Ratio (PRMT5 [1]; [5]) | IC50 (PRMT5 [2]) [nM]
CC(=O)N1CCC(Nc2cc(C(=O)NC[C@H](O)CN3CCc4c(ccc(OCc5ocnc5C)c4C)C3)ncn2)CC1 [Compound 274, (S)-6-((1-acetylpiperidin-4-yl)amino)-N-(2-hydroxy-3-(5-methyl-6-((4-methyloxazol-5-yl)methoxy)-3,4-dihydroisoquinolin-2(1H)-yl)propyl)pyrimidine-4-carboxamide] | 50 to 500 | A (a Ki ratio greater than or equal to 10 fold between the Ki in the presence of SAM and the Ki in the presence of MTA) | ≥ 5000 | 1000 to 10000 | C* (an IC50 ratio of less than 3 fold between the IC50 in the HAP1 MTAP-intact cell line and the HAP1 MTAP-deleted cell line) | 50 to 500 | ≥ 10000 |  | 
CC(=O)N(C)[C@H]1CC[C@H](Nc2cc(C(=O)NC[C@H](O)CN3CCc4c(ccc(OCc5cnco5)c4C)C3)ncn2)CC1 [Compound 605, N-[(2S)-2-hydroxy-3-{5-methyl-6-[(1,3-oxazol-5-yl)methoxy]-1,2,3,4-tetrahydroisoquinolin-2-yl}propyl]-6-{[(1r,4r)-4-(N-methylacetamido)cyclohexyl]amino}pyrimidine-4-carboxamide] | 50 to 500 |  |  | 1000 to 10000 | B* (an IC50 ratio greater than or equal to 3 fold but lower than 10 fold between the IC50 in the HAP1 MTAP-intact cell line and the HAP1 MTAP-deleted cell line) | 50 to 500 | ≥ 10000 | A (a Ki ratio greater than or equal to 10 fold between the Ki in the presence of SAM and the Ki in the presence of MTA) | ≥ 5000
Cc1c(OCc2cnco2)ccc2c1CCN(C[C@@H](O)CNC(=O)c1cccc(NC3COC3)c1)C2 [Compound 424, N-[(2S)-2-hydroxy-3-{5-methyl-6-[(1,3-oxazol-5-yl)methoxy]-1,2,3,4-tetrahydroisoquinolin-2-yl}propyl]-3-[(oxetan-3-yl)amino]benzamide] | 500 to 5000 | A (a Ki ratio greater than or equal to 10 fold between the Ki in the presence of SAM and the Ki in the presence of MTA) | ≥ 5000 | ≥ 10000 | C* (an IC50 ratio of less than 3 fold between the IC50 in the HAP1 MTAP-intact cell line and the HAP1 MTAP-deleted cell line) | 500 to 5000 | ≥ 10000 |  | 
CC(=O)N1CC(Nc2cc(C(=O)NC[C@H](O)CN3CCc4c(ccc(OCc5cnco5)c4Cl)C3)nc(C(C)(C)C)n2)C1 [Compound 360, (S)-6-((1-acetylazetidin-3-yl)amino)-2-(tert-butyl)-N-(3-(5-chloro-6-(oxazol-5-ylmethoxy)-3,4-dihydroisoquinolin-2(1H)-yl)-2-hydroxypropyl)pyrimidine-4-carboxamide] | 50 to 500 | A (a Ki ratio greater than or equal to 10 fold between the Ki in the presence of SAM and the Ki in the presence of MTA) | 500 to 5000 | < 1000 | A* (an IC50 ratio greater than or equal to 10 fold between the IC50 in the HAP1 MTAP-intact cell line and the HAP1 MTAP-deleted cell line) | 50 to 500 | ≥ 10000 |  | 
Cc1c(OCc2cnco2)ccc2c1CCN(C[C@@H](O)CNC(=O)c1cc(NC3CCCCC3)ncn1)C2 [Compound 436, 6-(cyclohexylamino)-N-[(2S)-2-hydroxy-3-{5-methyl-6-[(1,3-oxazol-5-yl)methoxy]-1,2,3,4-tetrahydroisoquinolin-2-yl}propyl]pyrimidine-4-carboxamide] | 500 to 5000 |  |  | ≥ 10000 | C* (an IC50 ratio of less than 3 fold between the IC50 in the HAP1 MTAP-intact cell line and the HAP1 MTAP-deleted cell line) | 500 to 5000 | ≥ 10000 | A (a Ki ratio greater than or equal to 10 fold between the Ki in the presence of SAM and the Ki in the presence of MTA) | ≥ 5000
Cc1ncoc1COc1ccc2c(c1Br)CCN(C[C@@H](O)CNC(=O)c1cc(NC3CCC3)ncn1)C2 [Compound 338, (S)—N-(3-(5-bromo-6-((4-methyloxazol-5-yl)methoxy)-3,4-dihydroisoquinolin-2(1H)-yl)-2-hydroxypropyl)-6-(cyclobutylamino)pyrimidine-4-carboxamide] | 500 to 5000 | A (a Ki ratio greater than or equal to 10 fold between the Ki in the presence of SAM and the Ki in the presence of MTA) | ≥ 5000 | ≥ 10000 | C* (an IC50 ratio of less than 3 fold between the IC50 in the HAP1 MTAP-intact cell line and the HAP1 MTAP-deleted cell line) | 500 to 5000 | ≥ 10000 |  | 
Cc1ncoc1COc1ccc2c(c1Br)CCN(C[C@@H](O)CNC(=O)c1cc(NC3CCCC3)ncn1)C2 [Compound 358, (S)—N-(3-(5-bromo-6-((4-methyloxazol-5-yl)methoxy)-3,4-dihydroisoquinolin-2(1H)-yl)-2-hydroxypropyl)-6-(cyclopentylamino)pyrimidine-4-carboxamide] | 500 to 5000 | A (a Ki ratio greater than or equal to 10 fold between the Ki in the presence of SAM and the Ki in the presence of MTA) | ≥ 5000 | ≥ 10000 | C* (an IC50 ratio of less than 3 fold between the IC50 in the HAP1 MTAP-intact cell line and the HAP1 MTAP-deleted cell line) | 500 to 5000 | ≥ 10000 |  | 
O=C(NC[C@H](O)CN1CCc2c(ccc(OCc3cnco3)c2Cl)C1)c1cncc(NC2CCOC2)c1 (stereo partly drawn) [Compound 359, N—((S)-3-(5-chloro-6-(oxazol-5-ylmethoxy)-3N-dihydroisoquinolin-2(1H)-yl)-2-hydroxypropyl)-5-((tetrahydrofuran-3-yl)amino)nicotinamide] | 500 to 5000 | A (a Ki ratio greater than or equal to 10 fold between the Ki in the presence of SAM and the Ki in the presence of MTA) | ≥ 5000 | 1000 to 10000 | C* (an IC50 ratio of less than 3 fold between the IC50 in the HAP1 MTAP-intact cell line and the HAP1 MTAP-deleted cell line) | 500 to 5000 | ≥ 10000 |  | 
CC(=O)N1CCC(Nc2cc(C(=O)NC[C@H](O)CN3CCc4cc(OCc5cn[nH]c5)ccc4C3)ncn2)CC1 [Compound 201, 6-[(1-acetyl-4-piperidyl)amino]-N-[(2S)-2-hydroxy-3-[6-(1H-pyrazol-4-ylmethoxy)-3,4-dihydro-1H-isoquinolin-2-yl]propyl]pyrimidine-4-carboxamide] | 50 to 500 | A (a Ki ratio greater than or equal to 10 fold between the Ki in the presence of SAM and the Ki in the presence of MTA) | 500 to 5000 | < 1000 | C* (an IC50 ratio of less than 3 fold between the IC50 in the HAP1 MTAP-intact cell line and the HAP1 MTAP-deleted cell line) | 50 to 500 | 1000 to 10000 |  | 
CC(=O)N1CC(Nc2cc(C(=O)NC[C@H](O)CN3CCc4cc(OCc5cnco5)ccc4C3)nc(N3CCCCC3)n2)C1 [Compound 365, (S)-6-((1-acetylazetidin-3-yl)amino)-N-(2-hydroxy-3-(6-(oxazol-5-ylmethoxy)-3A-dihydroisoquinolin-2(1H)-yl)propyl)-2-(piperidin-1-yl)pyrimidine-4-carboxamide] | < 50 | A (a Ki ratio greater than or equal to 10 fold between the Ki in the presence of SAM and the Ki in the presence of MTA) | 500 to 5000 | < 1000 | B* (an IC50 ratio greater than or equal to 3 fold but lower than 10 fold between the IC50 in the HAP1 MTAP-intact cell line and the HAP1 MTAP-deleted cell line) | 50 to 500 | 1000 to 10000 |  | 
CCC(=O)N1CCN(c2nc(NC3COC3)cc(C(=O)NC[C@H](O)CN3CCc4cc(OCc5ocnc5C)ccc4C3)n2)CC1 [Compound 409, N-[(2S)-2-hydroxy-3-{6-[(4-methyl-1,3-oxazol-5-yl)methoxy]-1,2,3,4-tetrahydroisoquinolin-2-yl}propyl]-6-[(oxetan-3-yl)amino]-2-(4-propanoylpiperazin-1-yl)pyrimidine-4-carboxamide] | 50 to 500 | A (a Ki ratio greater than or equal to 10 fold between the Ki in the presence of SAM and the Ki in the presence of MTA) | 500 to 5000 | 1000 to 10000 | B* (an IC50 ratio greater than or equal to 3 fold but lower than 10 fold between the IC50 in the HAP1 MTAP-intact cell line and the HAP1 MTAP-deleted cell line) | 50 to 500 | ≥ 10000 |  | 
CCC(=O)N1CC(Nc2cc(C(=O)NC[C@H](O)CN3CCc4cc(OCc5cnco5)ccc4C3)ccn2)C1 [Compound 469, N-[(2S)-2-hydroxy-3-[6-(oxazol-5-ylmethoxy)-3,4-dihydro-1H-isoquinolin-2-yl]propyl]-2-[(1-propanoylazetidin-3-yl)amino]pyridine-4-carboxamide] | 50 to 500 |  |  | 1000 to 10000 | C* (an IC50 ratio of less than 3 fold between the IC50 in the HAP1 MTAP-intact cell line and the HAP1 MTAP-deleted cell line) | 50 to 500 | 1000 to 10000 | A (a Ki ratio greater than or equal to 10 fold between the Ki in the presence of SAM and the Ki in the presence of MTA) | 500 to 5000
